The values that follow come from US20180117047A1, “DRUG FOR PREVENTING AND/OR TREATING DEMENTIA” (NATIONAL UNIVERSITY CORPORATION TOTTORI UNIVERSITY, priority 2015, published 2018).

Values joined by “and” are separate entries in the source; they are usually repeats but may differ in a detail not shown here. Identical values can stand only once. “Also recorded” adds a separate entry of the source.

The test system of assay [1] is Tg(APPSWE)2576KhaTg(Prnp-MAPT*P301L)JNPL3HImc Alzheimer's disease model double transgenic mice. Put plainly: Number of nerve cells having AT8 immunostaining-positive neurofibrillary tangles in Alzheimer's disease model double transgenic mice. Type of assay: in vivo, mouse.
For assay [2] the test system is unchanged. As to the kind of experiment: Number and size of senile plaques in cerebrum coronal cut surfaces of Alzheimer's disease model double transgenic mice (HE, Aβ40, Aβ42 staining). The assay is classed as in vivo, mouse.
The mark [3] stands for this setting: individual mouse, 5 mg/kg oral every day from one year old, sampled at 730 to 745 days old, 5 mg/kg.
Setting [4] is: individual mouse, diameter 50 μm or smaller, 5 mg/kg oral every day from one year old, sampled at 730 to 745 days old, 5 mg/kg.
Where [5] appears, read: individual mouse, diameter 100 μm or larger, 5 mg/kg oral every day from one year old, sampled at 730 to 745 days old, 5 mg/kg.
Setting [6] is: individual mouse, diameter between 50 μm and 100 μm, 5 mg/kg oral every day from one year old, sampled at 730 to 745 days old, 5 mg/kg.

On to `N#Cc1cc(-c2nc3c(O)ncnc3s2)ccc1Oc1ccccc1` [compound A, 5-(7-hydroxythiazolo[5,4-d]pyrimidin-2-yl)-2-phenoxy-benzonitrile], for which the “Tangle number as percentage of that of the control group” value in assay [1] (FIG. 10, 5 mg/kg oral daily) was 36%. Also, the “Number of nerve cells having AT8 immunostaining-positive neurofibrillary tangles per one cerebrum coronal cut surface” value in assay [1] (group average±standard deviation, 4 mice, 5 mg/kg oral daily about one year, control 209.9±46.0) is 77.0±67.1. Also, in assay [1] (setting [3]), the “Number of nerve cells having AT8 immunostaining-positive neurofibrillary tangles, amygdaloid nucleus maximum diameter coronal cut surface” value is 103 and 175 and 13 and 18; the “Number of nerve cells having AT8 immunostaining-positive neurofibrillary tangles, hypothalamus coronal cut surface” value is 149 and 119 and 26 and 13. The “Number of nerve cells having AT8 immunostaining-positive neurofibrillary tangles compared with the control group” value in assay [1] (p=0.016, Mann-Whitney U test, amygdaloid nucleus and hypothalamus, 5 mg/kg oral daily, FIG. 9, 10, 5 mg/kg) is “significantly smaller; also recorded: markedly suppresses; also recorded: fewer; also recorded: significantly lower”. Also, the “Large-sized senile plaques in the hippocampus compared with placebo control group (photographs)” value in assay [2] (HE staining, Aβ40 and Aβ42 immunostaining, FIG. 6 vs FIG. 5) is recorded as “clearly fewer”. Besides, the “Number of large-sized senile plaques per one cerebrum coronal cut surface” value in assay [2] (group average±standard deviation, 4 mice, 5 mg/kg oral daily about one year, control 26.9±12.3) was 11.1±5.9. Moreover, the “Number of medium-sized senile plaques per one cerebrum coronal cut surface” value in assay [2] (group average±standard deviation, 4 mice, 5 mg/kg oral daily about one year, control 44.3±14.5) came out at 30.9±20.5. In addition, the “Number of small-sized senile plaques per one cerebrum coronal cut surface” value in assay [2] (group average±standard deviation, 4 mice, 5 mg/kg oral daily about one year, control 88.3±35.2) worked out at 104.4±36.8. Also, in assay [2] (setting [4]), the “Number of small senile plaques, entorhinal cortex coronal cut surface” value was 96 and 78 and 110 and 164; the “Number of small senile plaques, mammillary body coronal cut surface” value is 113 and 38 and 106 and 130. For the same compound, in assay [2] (setting [5]), the “Number of large-sized senile plaques, entorhinal cortex coronal cut surface” value was 16 and 10 and 11 and 2; the “Number of large-sized senile plaques, mammillary body coronal cut surface” value was 21 and 12 and 5. Besides, in assay [2] (setting [6]), the “Number of medium-sized senile plaques, entorhinal cortex coronal cut surface” value is 78 and 24 and 31 and 14; the “Number of medium-sized senile plaques, mammillary body coronal cut surface” value is 33 and 12 and 25 and 30. Also, the “Number of large-sized senile plaques compared with the control group” value in assay [2] (p=0.013, Mann-Whitney U test, 5 mg/kg oral daily, FIG. 7, 5 mg/kg) is “significantly smaller; also recorded: significantly suppresses; also recorded: especially suppressed”. Also, the “Number of medium-sized senile plaques compared with the control group” value in assay [2] (p=0.036, Mann-Whitney U test, 5 mg/kg oral daily, FIG. 7, 5 mg/kg) is “significantly smaller; also recorded: significantly suppresses; also recorded: especially suppressed”. Also, the “Number of small senile plaques compared with the control group” value in assay [2] (p=0.400, Mann-Whitney U test, 5 mg/kg oral daily, FIG. 7) is reported as “Any significant difference was not observed”.
